The source of these data is PubChem BioAssay (NCI).

Holding throughout (assay): inhibition of tumour cell growth, NCI panel, 48 h
The subject of assay [1] is HOP-92 NSCLC.
In assay [2] the test system is HL-60(TB) leukemia.
The subject of assay [3] is UACC-62 melanoma.
Assay [4] concerns SK-MEL-5 melanoma.
Assay [5] relates to SF-539 CNS.
Assay [6] has as its system U251 CNS.
In assay [7] the test system is HOP-62 NSCLC.
In assay [8] the test system is NCI-H23 lung.
Assay [9] has as its system HT29 colon.
Assay [10] deals with NCI-H522 lung.
The subject of assay [11] is HCT-15 colon.
Assay [12] deals with K-562 leukemia.
Assay [13] has as its system LOX IMVI melanoma.
Assay [14] deals with OVCAR-3 ovarian.
Assay [15] has as its system MDA-N.
Assay [16] concerns PC-3 prostate.
For assay [17], the system named is SNB-19 CNS.
Assay [18] deals with SNB-75 CNS.
Assay [19] deals with UACC-257 melanoma.
Assay [20] deals with SR leukemia.

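Briefly, cells in 96-well plates were exposed to five compound concentrations for 48 h, and endpoints were estimated by linear interpolation. TGI denotes the concentration required for complete inhibition of growth.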

Take `COC1=CC(=O)c2c(c(-c3nc(C)cs3)cn2C)C1=O`: the TGI in assay [1] was 43.2 µM; in assay [2] it was 9.44 µM; in assay [3] it was 7.74 µM; in [4], 2.88 µM; in assay [5], 9.94 µM; in [6], over 100 µM. Further, the TGI in assay [7] was 25.3 µM; in assay [8], 6.92 µM; in [9] it was 21 µM; in [10], 7.26 µM; in [11], 14.7 µM; in assay [12], 20.6 µM. Also, the TGI in [13] is 22.8 µM; in assay [14], 6.09 µM; in assay [15], 2.7 µM; in assay [16], over 55.4 µM; in [17] it was over 100 µM; in assay [18] it was 5.42 µM. The TGI in [19] is 4.44 µM; in assay [20], over 50.8 µM.
Take `CCOC(=O)c1cccc(N=Nc2nc[nH]c2/C=C/C(=O)OC)c1`: the TGI in [1] is over 100 µM; in assay [2], 53.4 µM; in assay [3], over 100 µM; in assay [4], 36.9 µM; in assay [5] it was over 100 µM; in assay [6], over 100 µM. The TGI in assay [7], in [8], in assay [9], in assay [10], in [11] and in assay [12] was over 100 µM throughout. The TGI in assay [13] is over 100 µM; in assay [14], over 100 µM; in assay [15], over 100 µM; in assay [16], over 100 µM; in assay [17], over 100 µM; in assay [18] it was 58.7 µM. Moreover, the TGI in assay [19] was 60.4 µM; in assay [20], 12 µM.
Regarding `CC1=CCC([C@@](C)(O)CCCC(C)(C)N=C=S)CC1` (stereo not given in full), the TGI in assay [1] was determined as 33.1 µM; in assay [2], 43.8 µM; in [3] it was 34.7 µM; in assay [4], 29.2 µM; in [5], 33.3 µM; in assay [6] it was 32.9 µM. Moreover, the TGI in assay [7] stood at 40 µM; in assay [8], 38.5 µM; in [9], 32.9 µM; in [10], 33.8 µM; in [11], 34.2 µM; in assay [12] it was 42.4 µM. In addition, the TGI turned out to be 29.6 µM in assay [13]; 32.6 µM in [14]; 32.4 µM in [15]; 33 µM in assay [16]; 31.1 µM in [17]; 32.4 µM in assay [18]. Moreover, the TGI in assay [19] stood at 35 µM; in assay [20], 41.7 µM.
On to `O=S(=O)(O)C(CO)c1ccccc1` (stereo not given) (tested in a mixture with another compound), for which the TGI in assay [1] was over 100 µM; in assay [2] it was over 44.5 µM; in assay [3] it was over 100 µM; in assay [4] it was over 100 µM; in [5] it was over 100 µM; in [6] it was over 100 µM. The TGI in assay [7], in [8], in assay [9], in [10], in assay [11] and in assay [12] was over 100 µM throughout. The TGI in [13], in assay [14], in assay [15], in [16], in assay [17] and in assay [18] was over 100 µM throughout. The TGI in assay [19] and in [20] was over 100 µM throughout.
Regarding `CCCCCCCCCCCC[S+](C)C`, the TGI in [1] is 9.48 µM; in [2], 14.1 µM; in assay [3], 21.9 µM; in assay [4], 9.25 µM; in [5], 19.4 µM; in assay [6] it was 31.7 µM. In addition, the TGI in [7] was determined as 1.52 µM; in [8] it was 19.7 µM; in [9], 18.3 µM; in assay [10], 15.6 µM; in assay [11], 53.8 µM; in assay [12], 49.4 µM. The TGI in assay [13] was 15.9 µM; in assay [14], 18.6 µM; in assay [15], 15.5 µM; in assay [16], 9.92 µM; in assay [17], 20.5 µM; in assay [18], 16.6 µM. Besides, the TGI in [19] is 17.4 µM; in assay [20], over 100 µM.
Take `N#CC(C#N)=C1SC(=Nc2ccccc2)C(=Nc2ccccc2)N1c1ccccc1`: the TGI is 15.6 µM in [1]; over 24.6 µM in [2]; 14.2 µM in assay [3]; 28.7 µM in assay [4]; 22.5 µM in assay [5]; 41 µM in [6]. Moreover, the TGI in assay [7] was over 80.9 µM; in assay [8] it was 97.7 µM; in assay [9], over 69.9 µM; in [10], 4.08 µM; in [11] it was 6.3 µM; in assay [12] it was 7.12 µM. The TGI in assay [13] is 24.4 µM; in [14], 6.04 µM; in assay [15], 37.8 µM; in [16], 25.1 µM; in assay [17], over 100 µM; in assay [18], over 100 µM. Moreover, the TGI in assay [19] is 30 µM; in assay [20], over 26.2 µM.
